Data taken from patent US20240408094A1, “INHIBITION OF USP7 INDUCES P53-INDEPENDENT TUMOR GROWTH SUPPRESSION IN TRIPLE-NEGATIVE BREAST CANCERS BY DESTABILIZING FOXM1” (The Trustees of Columbia University in the City of New York, priority 2023, published 2024).
Where a SMILES comes first, the peptide text is derived from it. The star is where a group is joined. Cbz = O=C(OCc1ccccc1)*

Assays:
USP7 [1] = target: T1, USP7 (Homo sapiens, UniProt Q93009); test: Rescue of PU7-1-mediated USP7 degradation by pathway inhibitors in CAL33; format: cell-based; conditions: CAL33, 5 μM PU7-1; 5 μM MLN4924, 25 μM Chloroquine or 5 μM MG132 for 24 h
T1 construct: used to treat CAL33 cells that express high levels of USP7 protein; endogenous in cells; host or cells: CAL33 (human head and neck squamous cell cancer); for A6 also the CRBN CRISPR knockout CAL33
T1 sequence (Q93009 whole entry): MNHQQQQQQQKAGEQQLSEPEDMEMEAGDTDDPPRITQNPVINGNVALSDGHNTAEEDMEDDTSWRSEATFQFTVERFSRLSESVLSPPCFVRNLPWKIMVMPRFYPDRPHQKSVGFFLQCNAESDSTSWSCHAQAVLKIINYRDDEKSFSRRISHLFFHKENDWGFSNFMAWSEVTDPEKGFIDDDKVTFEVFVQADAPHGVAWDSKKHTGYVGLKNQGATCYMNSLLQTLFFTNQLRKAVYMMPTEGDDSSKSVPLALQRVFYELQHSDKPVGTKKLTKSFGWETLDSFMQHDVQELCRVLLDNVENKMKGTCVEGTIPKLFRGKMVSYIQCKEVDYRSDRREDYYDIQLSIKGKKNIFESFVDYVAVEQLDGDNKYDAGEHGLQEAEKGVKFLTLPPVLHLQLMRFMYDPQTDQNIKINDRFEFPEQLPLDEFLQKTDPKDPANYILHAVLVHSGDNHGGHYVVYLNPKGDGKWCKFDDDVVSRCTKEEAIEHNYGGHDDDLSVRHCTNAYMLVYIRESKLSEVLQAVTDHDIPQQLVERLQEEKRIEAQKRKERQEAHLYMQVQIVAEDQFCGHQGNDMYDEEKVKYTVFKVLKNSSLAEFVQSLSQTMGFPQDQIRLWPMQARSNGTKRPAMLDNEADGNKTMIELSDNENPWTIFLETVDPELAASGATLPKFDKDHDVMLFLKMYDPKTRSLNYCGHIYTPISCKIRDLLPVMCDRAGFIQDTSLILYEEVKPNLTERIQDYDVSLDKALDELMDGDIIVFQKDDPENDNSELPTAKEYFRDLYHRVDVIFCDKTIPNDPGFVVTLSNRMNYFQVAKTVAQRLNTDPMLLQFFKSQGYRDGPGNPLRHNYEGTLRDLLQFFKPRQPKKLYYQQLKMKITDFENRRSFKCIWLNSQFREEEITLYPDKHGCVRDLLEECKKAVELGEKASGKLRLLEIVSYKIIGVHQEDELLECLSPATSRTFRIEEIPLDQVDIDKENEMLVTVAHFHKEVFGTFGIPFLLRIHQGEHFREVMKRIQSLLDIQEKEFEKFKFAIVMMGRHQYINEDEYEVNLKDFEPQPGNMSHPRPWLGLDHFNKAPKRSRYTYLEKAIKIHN
Description: USP7 protein levels were detected by immunoblots. […] USP7 protein levels were measured by immunoblots. […] USP7 protein levels were detected by immunoblots, then quantified by ImageJ after normalized to internal control β-actin. Half maximal degradation concentration (DC50) was calculated by Graphpad Prism.
To investigate the mechanism of action of PU7-1, CRBN knockout (KO) CAL33 cell line was generated using CRISPR-Cas9 technology. Control and CRBN KO cells were treated with 2.5 μM of PU7-1 for 72 h and then the expression levels of USP7 and CRBN proteins were detected by western blot analysis. CRBN protein was undetectable in the KO cells (FIG. 3H). […] CAL33 cells were first treated with 5 μM of PU7-1 for 48 h to degrade the USP7 proteins, and then treated with 5 μM of MLN4924, 25 μM of Chloroquine (CLQ) or 5 μM of MG132 for additional 24 h.

FOXM1 = test: Block of PU7-1-induced FOXM1 destabilization by pathway inhibitors in CAL33; format: cell-based, human; conditions: CAL33, 10 μM PU7-1 72 h; 1 μM MLN4924 or BafA1 24 h, 10 μM MG132 6 h
USP7 [2] = target: T1, USP7; test: USP7 protein degradation by western blot in CAL33 cells; format: cell-based; conditions: CAL33 and A549 cells, 2.5 μM, 48 h
Description: To specifically degrade USP7, a set of 66 PROTAC compounds were designed and synthesized that contain an USP7 specific binding moiety XL177A and an E3 ubiquitin ligase (CRBN or VHL) binding moiety connected by different linkers. All putative USP7 PROTACs were used to treat CAL33 cells that express high levels of USP7 protein, and then the USP7 protein levels were determined by western blot (FIGS. 10A and 10B). Through initial screening, PU7-1 was identified as a potential USP7 degrader (FIG. 3A and FIG. 10). […] The effect of PU7-1 was also tested in several human cancer cells harboring wild-type p53. […] In addition, to exclude the possibility that PU7-1 affects the USP7 protein levels by regulating its transcription, a quantitative real-time PCR was performed in CAL33 treated with PU7-1 for 72 h. […]
Cells were lysed in FLAG lysis buffer (50 mM Tris-HCl (pH 7.3), 137 mM NaCl, 10 mM NaF, 0.5 mM EDTA, 1% Triton X-100, 0.2% Sarkosyl, 10% glycerol) freshly supplemented with protease inhibitor cocktail. Protein concentration was determined by the Bio-Rad protein assay. […] Membranes were blocked with 5% (w/v) nonfat milk in Tris-buffered saline with Tween-20 (TBST), incubated with primary antibodies, then secondary HRP-conjugated antibodies (Jackson ImmunoResearch, 1:10000 dilution) and detected on autoradiographic films after incubating with ECL (Thermo Scientific, #32106). […]

Structure (SMILES) | effect on USP7 degradation mediated by PU7-1 (USP7 [1]) | block of PU7-1-induced destabilization of FOXM1 (FOXM1) | capability to degrade USP7 protein (USP7 [2])
CCN(CC)CCCC(C)Nc1ccnc2cc(Cl)ccc12 (stereo not drawn) [Chloroquine] | no effect |  | 
CC(C)C[C@@H](C=O)NC(=O)[C@H](CC(C)C)NC(=O)[C@H](CC(C)C)NC(=O)OCc1ccccc1 [MG132] (Cbz-Leu-Leu-Leu-aldehyde) | significantly rescued | readily blocked | 
NS(=O)(=O)OC[C@@H]1C[C@@H](n2ccc3c(N[C@H]4CCc5ccccc54)ncnc32)C[C@@H]1O [MLN4924] | significantly rescued | readily blocked | 
CN1C(=O)CCC(N2Cc3c(CCCCCN4CCN(CCC(=O)Nc5ccc6c(=O)n(CC7(O)CCN(C(=O)C(CCCNC(=O)c8ccc9c(Cl)c%10c(nc9c8)CCCC%10)Cc8ccccc8)CC7)cnc6c5)CC4)cccc3C2=O)C1=O (stereo not drawn) [PU7-1N, N-(4-benzyl-5-(4-hydroxy-4-((7-(3-(4-(5-(2-(1-methyl-2,6-dioxopiperidin-3-yl)-1-oxoisoindolin-4-yl)pentyl)piperazin-1-yl)propanamido)-4-oxoquinazolin-3 (4H)-yl)methyl)piperidin-1-yl)-5-oxopentyl)-9-chloro-5,6,7,8-tetrahydroacridine-3-carboxamide] |  |  | defective capability to degrade USP7 protein
